The experiment deals with recombinant human SYK (GST-hSYK fusion protein) (Homo sapiens, UniProt P43405). In words: biochemical. Conditions: RHSYK Activity, Table 54A.

SMILES strings stand for the structures.

Description: Homogeneous Time-Resolved Fluorescence (HTRF) Assay for the Recombinant Human SYK Enzyme:

Consider `Cc1cc(Nc2nccc(C(F)(F)F)n2)cc(-c2cnc(C3(O)CCN(S(=O)(=O)C(C)C)CC3)s2)c1` [Example 54A-1], for which the IC50 (as a rule, the midpoint of a concentration-inhibition curve) was below 100 nM.

Turning to `Cc1cc(Nc2nccc(C(F)(F)F)n2)cc(-c2cnc(C3(O)CCN(S(=O)(=O)C(F)(F)F)CC3)s2)c1` [Example 54A-2], the IC50 is below 100 nM.

As for `Cc1cc(Nc2nccc(C(F)(F)F)n2)cc(-c2cnc(C3(O)CCN(S(=O)(=O)c4cn(C)cn4)CC3)s2)c1` [Example 54A-3], the concentration for half-maximal inhibition (IC50) is below 100 nM.

In the case of `CCC(=O)N1CCC(O)(c2ncc(-c3cc(C)cc(Nc4nccc(C(F)(F)F)n4)c3)s2)CC1` [Example 54A-4], the IC50 was below 100 nM.

Turning to `Cc1cc(Nc2nccc(C(F)(F)F)n2)cc(-c2cnc(C3(O)CCN(C(=O)CO)CC3)s2)c1` [Example 54A-5], the half-inhibitory concentration (IC50) was below 100 nM.

Take `Cc1cc(Nc2nccc(C(F)(F)F)n2)cc(-c2cnc(C3(O)CCN(C(=O)CC#N)CC3)s2)c1` [Example 54A-6]: the IC50 is below 100 nM.

For `Cc1cc(Nc2nccc(C(F)(F)F)n2)cc(-c2cnc(C3(O)CCN(C(=O)CN(C)C)CC3)s2)c1` [Example 54A-7], the half-maximal inhibitory concentration (IC50) was below 100 nM.

Consider `Cc1cc(Nc2nccc(C(F)(F)F)n2)cc(-c2cnc(C3(O)CCN(C(=O)c4cccnc4)CC3)s2)c1` [Example 54A-8], for which the IC50 is below 100 nM.

Regarding `Cc1cc(Nc2nccc(C(F)(F)F)n2)cc(-c2cnc(C3(O)CCN(C(=O)c4ccccn4)CC3)s2)c1` [Example 54A-9], the IC50 is below 100 nM.

As for `Cc1cc(Nc2nccc(C(F)(F)F)n2)cc(-c2cnc(C3(O)CCN(C(=O)CN4CCCC4=O)CC3)s2)c1` [Example 54A-10], the half-inhibitory concentration (IC50) was below 100 nM.

Turning to `Cc1cc(Nc2nccc(C(F)(F)F)n2)cc(-c2cnc(C3(O)CCN(C(=O)C4CC4)CC3)s2)c1` [Example 54A-11], the concentration for half-maximal inhibition (IC50) is below 100 nM.

For `Cc1cc(Nc2nccc(C(F)(F)F)n2)cc(-c2cnc(C3(O)CCN(C(=O)NC4CCCCC4)CC3)s2)c1` [Example 54A-12], the 50% inhibitory concentration (IC50) was below 100 nM.

For `Cc1cc(Nc2nccc(C(F)(F)F)n2)cc(-c2cnc(C3(O)CCN(C(=O)NC(C)C)CC3)s2)c1` [Example 54A-13], the IC50 is below 100 nM.

As to `CCCNC(=O)N1CCC(O)(c2ncc(-c3cc(C)cc(Nc4nccc(C(F)(F)F)n4)c3)s2)CC1` [Example 54A-14], the half-maximal inhibitory concentration (IC50) was below 100 nM.

With `Cc1cc(Nc2nccc(C(F)(F)F)n2)cc(-c2cnc(C3(O)CCN(C(=O)N(C)C)CC3)s2)c1` [Example 54A-15], the half-maximal inhibitory concentration (IC50) is below 100 nM.

As to `COc1ccnc(Nc2cc(C)cc(-c3cnc(C4(O)CCN(C(=O)NC(=O)N(C)C)CC4)s3)c2)n1` [Example 54A-17], the IC50 is below 100 nM.

In the case of `COc1ccnc(Nc2cc(C)cc(-c3cnc(C4(O)CCN(C(N)=O)CC4)s3)c2)n1` [Example 54A-19], the IC50 was below 100 nM.

For the compound `COc1ccnc(Nc2cc(C)cc(-c3cnc(C4(O)CCNCC4)s3)c2)n1` [Example 54A-20], the half-inhibitory concentration (IC50) was below 100 nM.

Take `Cc1cc(Nc2nccc(C(F)(F)F)n2)cc(-c2cnc(C3(O)CCN(C(=O)[C@@H](C)O)CC3)s2)c1` [Example 54A-21]: the IC50 was below 100 nM.

As to `Cc1cc(Nc2nccc(C(F)(F)F)n2)cc(-c2cnc(C3(O)CCN(C(=O)CCO)CC3)s2)c1` [Example 54A-22], the concentration for half-maximal inhibition (IC50) is below 100 nM.

On to `Cc1cc(Nc2nccc(C(F)(F)F)n2)cc(-c2cnc(C3(O)CCN(C(=O)CCC#N)CC3)s2)c1` [Example 54A-23], for which the half-maximal inhibitory concentration (IC50) is below 100 nM.

Turning to `Cc1cc(Nc2nccc(C(F)(F)F)n2)cc(-c2cnc(C3(O)CCN(CC(F)(F)F)CC3)s2)c1` [Example 54A-24], the 50% inhibitory concentration (IC50) was below 100 nM.

Turning to `Cc1cc(Nc2nccc(C(F)(F)F)n2)cc(-c2cnc(C3(O)CCN(C(=O)CC(N)=O)CC3)s2)c1` [Example 54A-25], the IC50 was below 100 nM.

As to `Cc1cc(Nc2nccc(C(F)(F)F)n2)cc(-c2cnc(C3(O)CCN(C(=O)CC(C)O)CC3)s2)c1` (stereo not drawn) [Example 54A-27], the half-maximal inhibitory concentration (IC50) is below 100 nM.

For `Cc1cc(Nc2nccc(C(F)(F)F)n2)cc(-c2cnc(C3(O)CCN(C(=O)c4ncc[nH]4)CC3)s2)c1` [Example 54A-28], the 50% inhibitory concentration (IC50) was below 100 nM.

In the case of `Cc1cc(Nc2nccc(C(F)(F)F)n2)cc(-c2cnc(C3(O)CCN(C(=O)c4c[nH]cn4)CC3)s2)c1` [Example 54A-29], the concentration for half-maximal inhibition (IC50) is below 100 nM.

As to `Cc1cc(Nc2nccc(C(F)(F)F)n2)cc(-c2cnc(C3(O)CCN(C(=O)c4nc[nH]n4)CC3)s2)c1` [Example 54A-30], the IC50 is below 100 nM.

With `Cc1cc(Nc2nccc(C(F)(F)F)n2)cc(-c2cnc(C3(O)CCN(C(=O)c4c[nH]nn4)CC3)s2)c1` [Example 54A-31], the IC50 was below 100 nM.

As for `Cc1cc(Nc2nccc(C(F)(F)F)n2)cc(-c2cnc(C3(O)CCN(C(=O)C4CCOC4)CC3)s2)c1` (stereo not drawn) [Example 54A-32], the IC50 was below 100 nM.

For the compound `Cc1cc(Nc2nccc(C(F)(F)F)n2)cc(-c2cnc(C3(O)CCN(C(=O)C4CC(O)C4)CC3)s2)c1` (stereo not drawn) [Example 54A-33], the IC50 was below 100 nM.

Take `Cc1cc(Nc2nccc(C(F)(F)F)n2)cc(-c2cnc(C3(O)CCN(C(=O)c4ccccc4)CC3)s2)c1` [Example 54A-34]: the IC50 was below 100 nM.

As for `Cc1cc(Nc2nccc(C(F)(F)F)n2)cc(-c2cnc(C3(O)CCN(C(=O)Cn4ccnc4)CC3)s2)c1` [Example 54A-35], the half-maximal inhibitory concentration (IC50) was below 100 nM.

In the case of `Cc1cc(Nc2nccc(C(F)(F)F)n2)cc(-c2cnc(C3(O)CCN(C(=O)Cc4c[nH]cn4)CC3)s2)c1` [Example 54A-36], the IC50 is below 100 nM.

Consider `Cc1cc(Nc2nccc(C(F)(F)F)n2)cc(-c2cnc(C3(O)CCN(C(=O)Cn4cncn4)CC3)s2)c1` [Example 54A-37], for which the 50% inhibitory concentration (IC50) is below 100 nM.

In the case of `Cc1cc(Nc2nccc(C(F)(F)F)n2)cc(-c2cnc(C3(O)CCN(C(=O)[C@@H]4CCC(=O)N4)CC3)s2)c1` [Example 54A-38], the IC50 was below 100 nM.

As for `Cc1cc(Nc2nccc(C(F)(F)F)n2)cc(-c2cnc(C3(O)CCN(C(=O)C4CNC(=O)N4)CC3)s2)c1` (stereo not drawn) [Example 54A-39], the IC50 was below 100 nM.

For `Cc1cc(Nc2nccc(C(F)(F)F)n2)cc(-c2cnc(C3(O)CCN(C(=O)CC4CCOC4)CC3)s2)c1` (stereo not drawn) [Example 54A-40], the IC50 was below 100 nM.

Regarding `Cc1cc(Nc2nccc(C(F)(F)F)n2)cc(-c2cnc(C3(O)CCN(C(=O)C4CCCOC4)CC3)s2)c1` (stereo not drawn) [Example 54A-41], the IC50 is below 100 nM.

With `Cc1cc(Nc2nccc(C(F)(F)F)n2)cc(-c2cnc(C3(O)CCN(C(=O)CC4CCCO4)CC3)s2)c1` (stereo not drawn) [Example 54A-42], the IC50 is below 100 nM.

For `CCOC(=O)CC(=O)N1CCC(O)(c2ncc(-c3cc(C)cc(Nc4nccc(C(F)(F)F)n4)c3)s2)CC1` [Example 54A-43], the IC50 is below 100 nM.

With `Cc1cc(Nc2nccc(C(F)(F)F)n2)cc(-c2cnc(C3(O)CCN(C(=O)C(C)(CO)CO)CC3)s2)c1` [Example 54A-44], the IC50 was below 100 nM.

Consider `Cc1cc(Nc2nccc(C(F)(F)F)n2)cc(-c2cnc(C3(O)CCN(C(=O)Cc4cccnc4)CC3)s2)c1` [Example 54A-45], for which the IC50 is below 100 nM.

Regarding `Cc1cc(Nc2nccc(C(F)(F)F)n2)cc(-c2cnc(C3(O)CCN(C(=O)Cc4ccccn4)CC3)s2)c1` [Example 54A-46], the IC50 was below 100 nM.

Consider `Cc1cc(Nc2nccc(C(F)(F)F)n2)cc(-c2cnc(C3(O)CCN(C(=O)CS(C)(=O)=O)CC3)s2)c1` [Example 54A-47], for which the IC50 is below 100 nM.

Turning to `Cc1cc(Nc2nccc(C(F)(F)F)n2)cc(-c2cnc(C3(O)CCN(C(=O)CCc4cn[nH]c4)CC3)s2)c1` [Example 54A-50], the IC50 was below 100 nM.

The values are drawn from patent US8551984B2, “Aminopyrimidines as SYK inhibitors” (Merck Sharp & Dohme Corp., priority 2009, dated 2013).
